Laboratory results taken from ChEMBL document CHEMBL3885861, “Open TG-GATES”.

Species on record: Rattus norvegicus
Assay: Open TG-GATES - Regimen: Daily Repeat
Type: toxicity, organism-based, Sprague-Dawley
Design: regimen Daily Repeat, gender Male, age 6 weeks
Conditions: in vivo, po, route gavage; for APTT / Bas / Eos / Fbg / Hb / Ht / Lym / MCH / MCHC / MCV / Mono / Neu / PT / Plat / RBC / Ret / WBC: tissue Blood; for KIDNEY_L / KIDNEY_R / KIDNEY_TOTAL: tissue Kidney; for LIVER: tissue Liver; for A/G / ALP / ALT / AST / BUN / CRE / Ca / Cl / DBIL / GLC / IP / K / LDH / Na / PL / RALB / TBIL / TC / TG / TP / gamma-GTP: tissue Plasma
[1] = 0 mg/kg, 72 h, dose level Control, time 3 day
[2] = 0 mg/kg, […], dose level Control, time 7 day
[3] = 0 mg/kg, […], dose level Control, time 14 day
[4] = 0 mg/kg, […], dose level Control, time 28 day
[5] = 25 mg/kg, 72 h, dose level Low, time 3 day
[6] = 25 mg/kg, […], dose level Low, time 7 day
[7] = 25 mg/kg, […], dose level Low, time 14 day
[8] = 25 mg/kg, […], dose level Low, time 28 day

CCSCC[C@H](N)C(=O)O [ETHIONINE]
TERMINAL_BW [1]: 234.6 g
APTT [1]: 19.8 s
Bas [1]: 0%
Eos [1]: 1%
Fbg [1]: 226.8 mg/dL
Hb [1]: 13 g/dL
Ht [1]: 38.3%
Lym [1]: 78.2%
MCH [1]: 21 pg
MCHC [1]: 34%
MCV [1]: 61.7 fL
Mono [1]: 3%
Neu [1]: 17.2%
PT [1]: 12 s
Plat [1]: 126.2 x10_4/uL
RBC [1]: 621.6 x10_4/ul
Ret [1]: 5.9%
WBC [1]: 113.1 x10_2/uL
KIDNEY_L [1]: 1.1 g
KIDNEY_R [1]: 1.1 g
KIDNEY_TOTAL [1]: 2.1 g
LIVER [1]: 10.9 g
A/G [1]: 1.6
ALP [1]: 977.6 IU/L
ALT [1]: 35.6 IU/L
AST [1]: 68 IU/L
BUN [1]: 13.8 mg/dL
CRE [1]: 0.4 mg/dL
Ca [1]: 10.8 mg/dL
Cl [1]: 101 meq/L
DBIL [1]: 0.08 mg/dL
GLC [1]: 210.2 mg/dL
IP [1]: 7.8 mg/dL
K [1]: 3.9 meq/L
LDH [1]: 174.8 IU/L
Na [1]: 140.4 meq/L
PL [1]: 149 mg/dL
RALB [1]: 3.4 g/dL
TBIL [1]: 0.1 mg/dL
TC [1]: 74 mg/dL
TG [1]: 99.2 mg/dL
TP [1]: 5.5 g/dL
gamma-GTP [1]: 1 IU/L
TERMINAL_BW [2]: 269.1 g
TERMINAL_BW [3]: 307.1 g
TERMINAL_BW [4]: 407.1 g
APTT [2]: 20.5 s
Bas [2]: 0%
Eos [2]: 0.8%
Fbg [2]: 222.8 mg/dL
Hb [2]: 14 g/dL
Ht [2]: 41.2%
Lym [2]: 79%
MCH [2]: 21.1 pg
MCHC [2]: 34%
MCV [2]: 61.8 fL
Mono [2]: 2.8%
Neu [2]: 16.6%
PT [2]: 12.1 s
Plat [2]: 123.3 x10_4/uL
RBC [2]: 666 x10_4/ul
Ret [2]: 5.6%
WBC [2]: 125.1 x10_2/uL
APTT [3]: 18.9 s
Bas [3]: 0%
Eos [3]: 1%
Fbg [3]: 213.6 mg/dL
Hb [3]: 14.5 g/dL
Ht [3]: 42.1%
Lym [3]: 77.2%
MCH [3]: 20.3 pg
MCHC [3]: 34.5%
MCV [3]: 58.9 fL
Mono [3]: 2.4%
Neu [3]: 18.8%
PT [3]: 11.9 s
Plat [3]: 114.5 x10_4/uL
RBC [3]: 714.8 x10_4/ul
Ret [3]: 3.8%
WBC [3]: 113.5 x10_2/uL
APTT [4]: 20.5 s
Bas [4]: 0%
Eos [4]: 1%
Fbg [4]: 216 mg/dL
Hb [4]: 15.3 g/dL
Ht [4]: 43.5%
Lym [4]: 79.2%
MCH [4]: 19.6 pg
MCHC [4]: 35.1%
MCV [4]: 55.9 fL
Mono [4]: 2%
Neu [4]: 16.8%
PT [4]: 12.4 s
Plat [4]: 113.3 x10_4/uL
RBC [4]: 778.4 x10_4/ul
Ret [4]: 2.2%
WBC [4]: 104.9 x10_2/uL
KIDNEY_L [2]: 1.1 g
KIDNEY_R [2]: 1.1 g
KIDNEY_TOTAL [2]: 2.2 g
KIDNEY_L [3]: 1.2 g
KIDNEY_R [3]: 1.2 g
KIDNEY_TOTAL [3]: 2.4 g
KIDNEY_L [4]: 1.5 g
KIDNEY_R [4]: 1.5 g
KIDNEY_TOTAL [4]: 2.9 g
LIVER [2]: 12.6 g
LIVER [3]: 13 g
LIVER [4]: 16.6 g
A/G [2]: 1.5
ALP [2]: 874.2 IU/L
ALT [2]: 34.6 IU/L
AST [2]: 62.2 IU/L
BUN [2]: 16.8 mg/dL
CRE [2]: 0.4 mg/dL
Ca [2]: 10.7 mg/dL
Cl [2]: 103.2 meq/L
DBIL [2]: 0.092 mg/dL
GLC [2]: 198 mg/dL
IP [2]: 7.6 mg/dL
K [2]: 3.8 meq/L
LDH [2]: 173.8 IU/L
Na [2]: 140.6 meq/L
PL [2]: 153 mg/dL
RALB [2]: 3.5 g/dL
TBIL [2]: 0.2 mg/dL
TC [2]: 70.6 mg/dL
TG [2]: 131.8 mg/dL
TP [2]: 5.8 g/dL
gamma-GTP [2]: 0.8 IU/L
A/G [3]: 1.5
ALP [3]: 742.4 IU/L
ALT [3]: 34.8 IU/L
AST [3]: 60.6 IU/L
BUN [3]: 16 mg/dL
CRE [3]: 0.4 mg/dL
Ca [3]: 10.6 mg/dL
Cl [3]: 102.4 meq/L
DBIL [3]: 0.082 mg/dL
GLC [3]: 240.8 mg/dL
IP [3]: 7.6 mg/dL
K [3]: 3.4 meq/L
LDH [3]: 177.2 IU/L
Na [3]: 141 meq/L
PL [3]: 144.6 mg/dL
RALB [3]: 3.5 g/dL
TBIL [3]: 0.1 mg/dL
TC [3]: 70 mg/dL
TG [3]: 125.2 mg/dL
TP [3]: 5.8 g/dL
gamma-GTP [3]: 0.8 IU/L
A/G [4]: 1.3
ALP [4]: 506.2 IU/L
ALT [4]: 32.2 IU/L
AST [4]: 65.2 IU/L
BUN [4]: 18.8 mg/dL
CRE [4]: 0.5 mg/dL
Ca [4]: 10.4 mg/dL
Cl [4]: 103 meq/L
DBIL [4]: 0.1 mg/dL
GLC [4]: 233 mg/dL
IP [4]: 7.1 mg/dL
K [4]: 3.8 meq/L
LDH [4]: 223.6 IU/L
Na [4]: 141.2 meq/L
PL [4]: 145.8 mg/dL
RALB [4]: 3.4 g/dL
TBIL [4]: 0.1 mg/dL
TC [4]: 72 mg/dL
TG [4]: 115.2 mg/dL
TP [4]: 6.1 g/dL
gamma-GTP [4]: 0.8 IU/L
TERMINAL_BW [5]: 235.6 g
APTT [5]: 22.5 s
Bas [5]: 0%
Eos [5]: 1%
Fbg [5]: 213.8 mg/dL
Hb [5]: 13.1 g/dL
Ht [5]: 39.1%
Lym [5]: 76.6%
MCH [5]: 20.8 pg
MCHC [5]: 33.6%
MCV [5]: 61.9 fL
Mono [5]: 2.8%
Neu [5]: 18.8%
PT [5]: 13.5 s
Plat [5]: 126.1 x10_4/uL
RBC [5]: 631.2 x10_4/ul
Ret [5]: 6.4%
WBC [5]: 124.8 x10_2/uL
KIDNEY_L [5]: 1 g
KIDNEY_R [5]: 1 g
KIDNEY_TOTAL [5]: 2.1 g
LIVER [5]: 11 g
A/G [5]: 1.6
ALP [5]: 1017.8 IU/L
ALT [5]: 39.2 IU/L
AST [5]: 68.2 IU/L
BUN [5]: 14.4 mg/dL
CRE [5]: 0.4 mg/dL
Ca [5]: 10.6 mg/dL
Cl [5]: 100.2 meq/L
DBIL [5]: 0.08 mg/dL
GLC [5]: 203.4 mg/dL
IP [5]: 8.7 mg/dL
K [5]: 4 meq/L
LDH [5]: 174.4 IU/L
Na [5]: 139.6 meq/L
PL [5]: 129.6 mg/dL
RALB [5]: 3.5 g/dL
TBIL [5]: 0.1 mg/dL
TC [5]: 56.6 mg/dL
TG [5]: 97 mg/dL
TP [5]: 5.7 g/dL
gamma-GTP [5]: 1.2 IU/L
TERMINAL_BW [6]: 268.3 g
TERMINAL_BW [7]: 312.6 g
TERMINAL_BW [8]: 389.5 g
APTT [6]: 22.7 s
Bas [6]: 0%
Eos [6]: 1%
Fbg [6]: 206.4 mg/dL
Hb [6]: 13.7 g/dL
Ht [6]: 40.1%
Lym [6]: 81.8%
MCH [6]: 20.8 pg
MCHC [6]: 34.2%
MCV [6]: 60.8 fL
Mono [6]: 2.2%
Neu [6]: 14.8%
PT [6]: 13.3 s
Plat [6]: 121.3 x10_4/uL
RBC [6]: 660 x10_4/ul
Ret [6]: 5.6%
WBC [6]: 94 x10_2/uL
APTT [7]: 22.1 s
Bas [7]: 0%
Eos [7]: 0.8%
Fbg [7]: 192.2 mg/dL
Hb [7]: 14.3 g/dL
Ht [7]: 41.5%
Lym [7]: 79.6%
MCH [7]: 20.8 pg
MCHC [7]: 34.6%
MCV [7]: 60.2 fL
Mono [7]: 2.2%
Neu [7]: 16.4%
PT [7]: 13.8 s
Plat [7]: 125.2 x10_4/uL
RBC [7]: 689 x10_4/ul
Ret [7]: 3.8%
WBC [7]: 109.7 x10_2/uL
APTT [8]: 24.9 s
Bas [8]: 0%
Eos [8]: 1.2%
Fbg [8]: 184.4 mg/dL
Hb [8]: 15.3 g/dL
Ht [8]: 44%
Lym [8]: 80%
MCH [8]: 19.7 pg
MCHC [8]: 34.7%
MCV [8]: 56.6 fL
Mono [8]: 2%
Neu [8]: 15.8%
PT [8]: 14 s
Plat [8]: 114 x10_4/uL
RBC [8]: 779.4 x10_4/ul
Ret [8]: 1.9%
WBC [8]: 137.8 x10_2/uL
KIDNEY_L [6]: 1.1 g
KIDNEY_R [6]: 1.1 g
KIDNEY_TOTAL [6]: 2.2 g
KIDNEY_L [7]: 1.3 g
KIDNEY_R [7]: 1.2 g
KIDNEY_TOTAL [7]: 2.5 g
KIDNEY_L [8]: 1.4 g
KIDNEY_R [8]: 1.4 g
KIDNEY_TOTAL [8]: 2.8 g
LIVER [6]: 12.3 g
LIVER [7]: 13.8 g
LIVER [8]: 17.2 g
A/G [6]: 1.7
ALP [6]: 1036.6 IU/L
ALT [6]: 32.8 IU/L
AST [6]: 61.2 IU/L
BUN [6]: 15.2 mg/dL
CRE [6]: 0.4 mg/dL
Ca [6]: 10.5 mg/dL
Cl [6]: 103.2 meq/L
DBIL [6]: 0.086 mg/dL
GLC [6]: 195.8 mg/dL
IP [6]: 7.9 mg/dL
K [6]: 3.8 meq/L
LDH [6]: 205.8 IU/L
Na [6]: 141.6 meq/L
PL [6]: 143 mg/dL
RALB [6]: 3.7 g/dL
TBIL [6]: 0.1 mg/dL
TC [6]: 61 mg/dL
TG [6]: 141.4 mg/dL
TP [6]: 5.9 g/dL
gamma-GTP [6]: 1 IU/L
A/G [7]: 1.7
ALP [7]: 768.4 IU/L
ALT [7]: 28.6 IU/L
AST [7]: 56.2 IU/L
BUN [7]: 16.8 mg/dL
CRE [7]: 0.5 mg/dL
Ca [7]: 10.3 mg/dL
Cl [7]: 101.8 meq/L
DBIL [7]: 0.09 mg/dL
GLC [7]: 215.4 mg/dL
IP [7]: 7.2 mg/dL
K [7]: 3.7 meq/L
LDH [7]: 202.4 IU/L
Na [7]: 140.8 meq/L
PL [7]: 126.8 mg/dL
RALB [7]: 3.6 g/dL
TBIL [7]: 0.1 mg/dL
TC [7]: 49.6 mg/dL
TG [7]: 134 mg/dL
TP [7]: 5.9 g/dL
gamma-GTP [7]: 0.8 IU/L
A/G [8]: 1.6
ALP [8]: 588.2 IU/L
ALT [8]: 34.4 IU/L
AST [8]: 61.6 IU/L
BUN [8]: 18.6 mg/dL
CRE [8]: 0.5 mg/dL
Ca [8]: 10.4 mg/dL
Cl [8]: 103.4 meq/L
DBIL [8]: 0.1 mg/dL
GLC [8]: 221.8 mg/dL
IP [8]: 6.7 mg/dL
K [8]: 3.5 meq/L
LDH [8]: 209 IU/L
Na [8]: 142.4 meq/L
PL [8]: 124.2 mg/dL
RALB [8]: 3.8 g/dL
TBIL [8]: 0.2 mg/dL
TC [8]: 48.6 mg/dL
TG [8]: 144.8 mg/dL
TP [8]: 6.2 g/dL
gamma-GTP [8]: 1 IU/L
